# Data: PubChem BioAssay (NCI)
#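 All cell lines were grown in 96-well plates and treated with compound for 48 hours. TGI: total growth inhibition.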
# Legend:
# Assay in all cases: inhibition of tumour cell growth, NCI panel, 48 h
# A498 renal = system: A498 renal
# BT-549 breast = system: BT-549 breast
# DU-145 prostate = system: DU-145 prostate
# HOP-92 NSCLC = system: HOP-92 NSCLC
# HT29 colon = system: HT29 colon
# M14 melanoma = system: M14 melanoma
# MDA-MB-231 breast = system: MDA-MB-231 breast
# MOLT-4 leukemia = system: MOLT-4 leukemia
# NCI-H23 lung = system: NCI-H23 lung
# SW-620 colon = system: SW-620 colon
# T-47D breast = system: T-47D breast
# UO-31 renal = system: UO-31 renal
# RPMI-8226 leukemia = system: RPMI-8226 leukemia
SMILES,TGI (A498 renal) [µM],TGI (BT-549 breast) [µM],TGI (DU-145 prostate) [µM],TGI (HOP-92 NSCLC) [µM],TGI (HT29 colon) [µM],TGI (M14 melanoma) [µM],TGI (MDA-MB-231 breast) [µM],TGI (MOLT-4 leukemia) [µM],TGI (NCI-H23 lung) [µM],TGI (SW-620 colon) [µM],TGI (T-47D breast) [µM],TGI (UO-31 renal) [µM],TGI (RPMI-8226 leukemia) [µM]
C1=Cc2cccc3occ(c23)C=C1,> 100,> 100,> 100,> 100,> 100,> 100,> 100,79.4,> 100,> 100,> 100,> 100,–
Nn1c(CCCCCCCCc2n[nH]c(=S)n2N)n[nH]c1=S,> 100,> 100,> 100,> 100,> 100,> 100,> 100,> 100,> 100,> 100,> 100,> 100,> 100
CC(C)(C)NC(=S)N/N=C/c1ccccn1,> 79.1,> 100,> 100,89.3,> 100,> 41.9,> 100,–,> 100,> 100,> 100,> 47.8,3.83
Cc1ccc(O)c(C2=NNC(c3cccc(Cl)c3)C2)c1 (configuration not stated),–,> 100,> 100,81.7,> 100,> 100,> 100,> 100,> 100,> 100,> 100,> 100,88.3
Cc1cnc2[nH]c(-c3ccc(Cl)cc3)cc(=O)c2c1,> 100,> 100,> 69.8,> 100,> 39.1,> 100,> 19.9,> 53.7,> 100,> 100,> 100,> 60.5,> 60.3
Cc1ccc(S(=O)(=O)NNC(=O)Nc2ccc([N+](=O)[O-])cc2)cc1,> 100,> 100,> 100,> 100,> 100,> 100,> 100,> 100,> 100,> 100,28.9,> 100,78.5
C[C@H]1S[C@H](c2c(F)cccc2F)n2c1nc1ccccc12,–,> 100,> 100,–,> 100,> 100,> 100,> 100,> 100,> 100,> 100,> 100,> 100
COC(=O)[C@@H]1[C@H]2CC[C@]3(C)[C@@H](OC(C)=O)CC[C@H]3[C@@H]2CC[C@H]1C(C)=O,> 100,> 100,> 100,> 100,> 100,> 100,> 100,> 100,> 100,> 100,> 100,> 100,> 100
CCOC(=O)CCc1ccc(NC(=O)/C=C/c2ccc([N+](=O)[O-])o2)cc1,7.27,4.79,6.39,50.7,3.43,2.43,3.94,0.547,3.33,2.31,40.8,3.08,–
CCOC(=O)c1nc2cc(F)cc(F)c2[nH]c1=O,> 100,> 100,> 100,> 100,> 100,> 100,> 100,> 100,> 100,> 100,> 100,> 100,> 100
COC(=O)/C(C#N)=C/c1cc(C(C)(C)C)c(O)c(C(C)(C)C)c1,8.37,14,> 100,12.4,12.1,13.6,4.95,> 29.6,12.5,14.5,19.4,10,3.54
CN1CCN(Cc2ccccc2)CC1CC#N (configuration not stated),> 100,> 100,> 100,–,> 100,–,> 100,> 100,> 100,> 100,> 100,> 100,> 100
CCOc1nc2sc3c(c2c(=O)n1CCSSCCn1c(OCC)nc2sc4c(c2c1=O)CCCC4)CCCC3,> 100,> 100,> 100,–,> 100,> 100,> 100,> 100,> 100,> 100,> 100,> 100,> 100
N#Cc1c(N)c2c(c(-c3ccccc3)c1-c1ccccc1)C(=O)N(O)C2=O,> 100,> 100,> 100,> 100,–,> 100,> 100,> 100,–,> 100,73.9,> 100,> 100
C=CCN1C(=O)CS/C1=N\NC(=O)CSc1nc2ccccc2c(=O)n1CC,> 100,> 100,> 100,–,> 100,> 100,> 100,> 100,> 100,> 100,> 100,> 100,> 100
Cc1cc(S(=O)(=O)NC2=NCC(C)(C)CN2)c(S)cc1Cl,> 100,> 100,> 100,–,46.3,> 100,> 100,–,–,36.8,> 100,99.8,–
CC12CCC(=O)[C@@]1(C)CCCC2O (some centres not stated),–,> 100,> 100,–,> 100,> 100,> 100,> 100,> 100,> 100,> 100,> 100,> 100
CCN1C/C(=C\c2ccc(Cl)cc2)c2[nH]c(=O)c(C#N)c(-c3ccc(Cl)cc3)c2C1,> 100,> 100,> 100,> 100,> 100,> 100,> 100,> 100,> 100,> 100,> 100,–,> 100
CCCC(C(=O)Nc1cccc2[nH]cnc12)C(=O)OCC (configuration not stated),> 100,> 100,> 100,> 100,> 100,> 100,> 100,> 100,–,> 100,> 100,> 100,> 100
